Measured values published in patent US6465515B2, “Solid compositions suitable for oral administration containing non-hydroscopic salts of L-carnitine and alkanoyl L-carnitines” (Sigma-Tau Industrie Farmaceutiche Riunite S.p.A., priority 1998, dated 2002).

Test: hygroscopicity of the salts
Assay type: physicochemical
Conditions: isolated solid

Compound: CCC(=O)O[C@H](CC(=O)O)C[N+](C)(C)C [Example 1, Propionyl L-carnitine Pamoate]
- hygroscopicity: non-hygroscopic

Compound: CC(=O)O[C@H](CC(=O)O)C[N+](C)(C)C [Example 3, Acetyl L-carnitine Pamoate]
- hygroscopicity: non-hygroscopic
